The values below come from patent publication US5624948A, “1-(2-benzimidazolyl)-1,5-diazacyclooctane compounds” (Kissei Pharmaceutical Co., Ltd., priority 1993, dated 1997).

Usually CC50 stands for the concentration giving 50% cytotoxicity.

One data set can be described thus: in vitro. Format: cell-based. The note with it: human, nhek keratinocytes. As to the method: The 1-(2-benzimidazolyl)-1,5-diazacyclooctane compounds of the present invention show a weak cytotoxicity toward normal human epidermal keratinocytes (NHEK) growth. […] In comparison, the NR50 value of Astemizole is about 4.42 μM.
The test system of a further data set is bronchial tissues. The following applies: topical formulation applied to the bronchia; cited from earlier work.
Data set [1] relates to DNP-As-induced bronchoconstriction. Put plainly: guinea pig antigen-induced bronchoconstriction model (DNP-As-induced, inhalation of compound). Format: in vivo. The note with it: 0.01 mg/ml solution, inhalation for 1 minute with ultrasonic nebulizer, DNP-As 100 μg protein/ml, 1 ml/kg, i.v. From the text:
In the guinea pig antigen-induced bronchoconstriction model, the 1-(2-benzimidazolyl)-1,5-diazacyclooctane compounds of the present invention also show a potent antiallergic activity and a long-lasting efficacy.

Another data set concerns the target T1, histamine H1-receptor (Cavia porcellus, UniProt P31389).
T1 construct: histamine H1 -receptor site in guinea pig cerebellum; from tissue; host or cells: guinea pig cerebellum
Put plainly: receptor binding assay in blocking 3H-pyrilamine binding to histamine H1-receptor site in guinea pig cerebellum. The following applies: read-out: 50% inhibitory activity (concentration producing 50% reduction of the binding of the labeled ligand). From the text: The pharmacological activity of the 1-(2-benzimidazolyl)-1,5-diazacyclooctane compounds of the present invention can be confirmed by receptor binding assay in blocking 3H-pyrilamine binding to histamine H1 -receptor site in guinea pig cerebellum. The 1-(2-benzimidazolyl)-1,5-diazacyclooctane compounds of the present invention show a potent histamine H1 -receptor antagonistic activity, and produce a 50% inhibitory activity in a range of about 10^-10 to 10^-8 M (concentration producing 50% reduction of the binding of the labeled ligand).

Molecules are shown by their SMILES.

T1 sequence (P31389 whole entry): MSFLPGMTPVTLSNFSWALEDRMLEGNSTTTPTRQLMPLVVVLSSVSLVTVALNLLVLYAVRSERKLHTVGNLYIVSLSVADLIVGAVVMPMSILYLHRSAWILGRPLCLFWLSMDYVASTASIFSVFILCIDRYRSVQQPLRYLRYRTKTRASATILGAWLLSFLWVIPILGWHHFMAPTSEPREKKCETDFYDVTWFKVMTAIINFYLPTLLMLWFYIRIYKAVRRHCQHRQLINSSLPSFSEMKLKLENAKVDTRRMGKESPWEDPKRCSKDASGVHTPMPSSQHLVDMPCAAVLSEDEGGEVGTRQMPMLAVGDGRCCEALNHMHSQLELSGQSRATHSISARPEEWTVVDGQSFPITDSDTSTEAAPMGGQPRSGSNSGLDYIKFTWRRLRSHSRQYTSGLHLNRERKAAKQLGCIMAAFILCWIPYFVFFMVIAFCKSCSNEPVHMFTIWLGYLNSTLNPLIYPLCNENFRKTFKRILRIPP

As to `COc1ccc(CCN2CCC(Nc3nc4ccccc4n3Cc3ccc(F)cc3)CC2)cc1` [Astemizole], the CC50 in the data set “in vitro” was ~4.42 µM. In the data set on bronchial tissues, the “irritation to bronchial tissues (in words)” value is “strong irritation to bronchial tissues”. In data set [1], the “inhibition of DNP-As-induced bronchoconstriction at 4 hours after inhalation” value is “about 37.5%” and the “inhibition of DNP-As-induced bronchoconstriction at 8 hours after inhalation” value is reported as “about 29.3%”.
Consider `O=C(O)CCc1ccc(CCN2CCCN(c3nc4ccccc4n3Cc3ccc(F)cc3)CCC2)cc1` [Compound 16, 5-[2-[4-(2-Carboxyethyl)phenyl]ethyl]-1-[1-(4-fluorophenylmethyl)-1H-benzimidazol-2-yl]-1,5-diazacyclooctane], for which, in the data set “in vitro”, the CC50 was ~789 µM. Further, in data set [1], the “inhibition of DNP-As-induced bronchoconstriction at 4 hours after inhalation” value is “about 54.6%” and the “inhibition of DNP-As-induced bronchoconstriction at 8 hours after inhalation” value is reported as “about 44.7%”. For the same compound, the IC50 on histamine H1-receptor is ~0.000575 µM.
